Tests used:
OmpLA = target: T1, OmpLA (Escherichia coli, UniProt P0A921); assay: free fatty acid release by ANS displacement from BSA (fluorescence); format: biochemical; details: DMPG proteoliposomes, CaCl2 added to start, 30 °C
T1 construct: gene pldA; functional dimer, needs divalent cation

PagP = target: T2, PagP (Escherichia coli, UniProt P37001); assay: colorimetric release of 4-nitrophenol, A410; format: biochemical; details: DMPG proteoliposomes, pH 8.5, 2 M urea, room temperature; substrate delivered with methyl-beta-cyclodextrin
T2 sequence (P37001 26-186): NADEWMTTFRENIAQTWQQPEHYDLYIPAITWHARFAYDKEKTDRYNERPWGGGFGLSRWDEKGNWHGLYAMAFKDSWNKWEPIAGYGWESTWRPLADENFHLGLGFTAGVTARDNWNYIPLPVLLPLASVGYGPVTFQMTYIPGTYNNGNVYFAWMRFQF

T1 sequence (P0A921 21-289): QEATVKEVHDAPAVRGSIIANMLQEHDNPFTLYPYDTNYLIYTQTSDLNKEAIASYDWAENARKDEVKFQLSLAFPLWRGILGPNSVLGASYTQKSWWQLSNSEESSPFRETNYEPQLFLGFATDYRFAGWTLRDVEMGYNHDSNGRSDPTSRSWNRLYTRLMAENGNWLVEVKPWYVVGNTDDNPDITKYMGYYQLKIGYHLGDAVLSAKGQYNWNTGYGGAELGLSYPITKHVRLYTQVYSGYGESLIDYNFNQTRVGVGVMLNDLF

Row | Compound | free fatty acid release by ANS displacement from BSA (fluorescence) (OmpLA) | colorimetric release of 4-nitrophenol, A410 (PagP)
1 | CCCCCCCCCCCCCC(=O)OC[C@H](COP(=O)(O)OCC(O)CO)OC(=O)CCCCCCCCCCCCC (some centres unmarked) [DMPG] | the phospholipase activity of OmpLA was measured in DMPG proteoliposomes | 
2 | CCCCCCCCCCCCCCCC(=O)Oc1ccc([N+](=O)[O-])cc1 [palmitate-4-nitrophenol] |  | MβCD facilitates the rapid delivery of the pNP PagP substrate into liposome bilayers

Source: article PMC7617971, “OmpA Specifically Modulates the Activity of Enzymes that Reside in the Crowded Bacterial Outer Membrane” (Journal of molecular biology, 2025)
